Source: US20260015341A1, “PI3K INHIBITOR, PREPARATION METHOD THEREFOR, AND USE THEREOF” (HINOVA PHARMACEUTICALS INC., priority 2022, published 2026)

Legend:
[1] = system: MCF-10A cells; assay: Inhibitory effects on the proliferation of MCF-10A cells (CCK8); format: cell-based; settings: 6 days
Description: Experimental Example 2: Experiment of Inhibitory Effects on the Proliferation of MCF-10A Cells
MCF-10A cells (Cobioer Bio. #CBP60419MCF) were diluted with complete medium (Cobioer Bio. #CBP60419), seeded in 96-well plate (Corning #3599) at 500 cells/well, and then cultured for 24 h. Then, gradiently diluted compounds were added (starting at a final concentration of 10 μM, 3-fold dilution, 9 dose concentrations), and the final volume was adjusted to 100 μL/well. The plate was incubated at 37° C. under 5% CO2 for 6 days. After the cultivation was completed, CCK8 reagent (Signalway Antibody Bio. #CP002) was added at 10 μL/well, and then the plate was further incubated at 37° C. under 5% CO2 for 2-3 hours. The OD450 nm value was obtained by a microplate reader.
The results are shown in the MCF-OA IC50 column in Table 2.

[2] = system: T47D cells; assay: Inhibitory effects on the proliferation of T47D cells (CellTiter-Glo); format: cell-based; settings: 7 days
Description: Experimental Example 3: Experiment of Inhibitory Effects on the Proliferation of T47D Cells
T47D cells (ATCC. #HTB-133) were diluted with RPMI 1640 (Gibco #22400-089) containing 10% FBS (Hyclone #SH30084.03), seeded in 96-well plate (Biosharp #BS-MP-96W) at 1000 cells/well, and then cultured for 24 h. Then, gradiently diluted compounds were added (starting at a final concentration of 10 μM, 3-fold dilution, 9 dose concentrations), and the final volume was adjusted to 150 μL/well. The plate was incubated at 37° C. under […] for 7 days. After the cultivation was completed, CellTiter-Glo reagent (Promega #G7573) was added at 75 μL/well, and then the plate was further incubated at 25° C. for 10 min. After that, the chemiluminescence value was read using an instrument.
The results are shown in the T47D IC50 column in Table 2.

[3] = target: PI3Kα[WT]/[E542K]/[E545K]/[H1047R]/PI3Kβ/γ/δ; assay: PI3K enzyme activity assay (ADP-Glo); format: biochemical; settings: PI3K kinase reaction, isoform not given
Description: Experimental Example 1: PI3Kα[WT]/[E542K]/[E545K]/[H1047R]/PI3Kβ/γ/δ Enzyme Activity Assay
PI3Kα[WT], PI3Kα[E542K], PI3Kα[E545K], PI3Kα[H1047R], PI3Kβ, PI3Kγ and PI3Kδ kinase reaction was performed in 384-well plate (PerkinElmer, #6008280), with a reaction system of 4 μL. PI3Kα[WT] enzyme solution (Promega, #V1721) or PI3Kα[E542K] enzyme solution (CarnaBio, #11-413-20N) or PI3Kα[E545K] enzyme solution (CarnaBio, #11-414-20N) or PI3Kα[H1047R] enzyme solution (Promega, #V1741) or PI3Kβ enzyme solution (Promega, #V1751) or PI3Kγ enzyme solution (ThermoFisher, #PV4786) or PI3Kδ enzyme solution (ThermoFisher, #PV6451) were added to 384-well plate, and then gradiently diluted compounds were added (starting at a final concentration of 10 μM, 3-fold dilution, 10 doses), followed by adding PIP2: 3PS (Promega, #V1701) and ATP solution (Promega, #V915B) to the plate. After incubation at 25° C. for 1 h, ADP-Glo reagent buffer (Promega, #V9102) was added to each well. The plate was sealed and incubated at 25° C. for 40 min, and then 10 μL of ADP-Glo detection buffer (Promega, #V9102) was added to each well. After incubating at 25° C. for 40 min, the chemiluminescence value was read using an instrument.
The experimental results are shown in the ADP Glo IC50 column in Table 2.

| Compound | IC50 ([1]; Homo sapiens, 144 h) [µM] | IC50 ([2]; Homo sapiens, 168 h) [µM] | IC50 [3] [µM] | IC50 [1] [µM] | IC50 [2] [µM] |
| --- | --- | --- | --- | --- | --- |
| [2H]C([2H])([2H])n1c(-c2ccc(F)cn2)nc2c([C@@H](C)Nc3ccc(Cl)cc3C(=O)O)cc(F)cc2c1=O [Compound 88, (R)-5-chloro-2-((1-(6-fluoro-2-(5-fluoropyridin-2-yl)-3-deuteromethyl-4-oxo-3,4-dihydroquinazolin-8-yl)ethyl)amino)benzoic Acid] | > 5 | > 5 |  |  |  |
| Cc1cc([C@@H](C)Nc2ccc(F)cc2C(=O)O)c2nc(-c3ccc(F)cn3)n(C)c(=O)c2c1 [Compound 87] | > 5 | < 1 |  |  |  |
| Cc1cc([C@@H](C)N[S@+]([O-])C(C)(C)C)c2nc(-c3ccncc3)n(C)c(=O)c2c1 [Compound 108] | > 5 | > 5 |  |  |  |
| C[C@@H](Nc1cccc(F)c1C(=O)O)c1cc(F)cc2c(=O)n(C)c(-c3ccccc3)nc12 [Compound 79] | > 5 | 1 to 5 |  |  |  |
| [2H]C([2H])([2H])n1c(-c2ccc(C(F)(F)F)nc2)nc2c([C@@H](C)Nc3ccc(Cl)nc3C(=O)O)cc(C)cc2c1=O [Compound 94] | > 5 | < 1 |  |  |  |
| COc1ccc(-c2nc3c([C@@H](C)Nc4ccc(Cl)nc4C(N)=O)cc(C)cc3c(=O)n2C)cc1 [Compound 112] | 1 to 5 |  |  |  |  |
| Cc1cc([C@@H](C)Nc2ccccc2C(N)=O)c2oc(-c3ccc(F)cc3F)cc(=O)c2c1 [Compound 47] | > 5 | < 1 |  |  |  |
| Cc1cc([C@@H](C)Nc2ccccc2C(=O)O)c2nc(-c3c(F)cccc3F)n(C)c(=O)c2c1 [Compound 37, (R)-2-((1-(2-(2,6-difluorophenyl)-3,6-dimethyl-4-oxo-3,4-dihydroquinazolin-8-yl)ethyl)amino)benzoic Acid] |  |  | < 1 |  |  |
| COC(=O)c1occc1N[C@H](C)c1cc(C)cc2c(=O)cc(-c3ccc(F)cc3F)oc12 [Compound 63, methyl (R)-3-((1-(2-(2,4-difluorophenyl)-6-methyl-4-oxo-4H-chromen-8-yl)ethyl)amino)furan-2-carboxylate] | > 5 | 1 to 5 |  |  |  |
| Cc1ccc(N[C@H](C)c2cc(C)cc3c(=O)n(C)c(-c4c(F)cccc4F)nc23)c(C(=O)O)c1 [Compound 38] |  |  | < 1 |  |  |
| Cc1cc([C@@H](C)Nc2ccccc2C(=O)O)c2nc(-c3c(C)noc3C)n(C)c(=O)c2c1 [Compound 51] | > 5 | > 5 |  |  |  |
| Cc1cc([C@@H](C)Nc2ccc(Cl)nc2C(=O)O)c2nc(-c3ccc(C(F)(F)F)cn3)n(C)c(=O)c2c1 [Compound 75] | > 5 | 1 to 5 |  |  |  |
| C[C@@H](Nc1sccc1C(=O)O)c1cc(F)cc2c(=O)n(C)c(-c3ccc(F)cn3)nc12 [Compound 84] | > 5 | > 5 |  |  |  |
| Cc1cc([C@@H](C)Nc2ccccc2C(=NO)C(F)(F)F)c2oc(-c3ccc(F)cc3F)cc(=O)c2c1 (stereo in doubt) [Compound 64, (R,E)-2-(2,4-difluorophenyl)-6-methyl-8-(1-((2-(2,2,2-trifluoro-1-(hydroxyimino)ethyl)phenyl)amino)ethyl)-4H-chromen-4-one] | > 5 | 1 to 5 |  |  |  |
| Cc1cc([C@@H](C)Nc2ccccc2C(O)C(F)(F)F)c2oc(-c3ccc(F)cc3)cc(=O)c2c1 (single isomer, unassigned) [Compound 68] |  |  |  | > 5 | 1 to 5 |
| COC(=O)c1nc(Cl)ccc1N[C@H](C)c1cc(C)cc2c(=O)nc(-c3ccc(C(F)(F)F)nc3)n(C)c12 [Compound 113] | > 5 |  |  |  |  |
| Cc1cc([C@@H](C)Nc2ccc(Cl)nc2C(=O)OC(C)(C)C)c2nc(-c3c(C)noc3C)n(C)c(=O)c2c1 [Compound 50] | > 5 | 1 to 5 |  |  |  |
| Cc1cc([C@@H](C)Nc2cc(F)ccc2C(=O)O)c2nc(-c3ccc(F)cn3)n(C)c(=O)c2c1 [Compound 78] | > 5 | 1 to 5 |  |  |  |
| C[C@@H](Nc1ccc(Cl)nc1C(=O)O)c1cc(Cl)cc2c(=O)n(C)c(-c3ncc(Cl)cn3)nc12 [Compound 97] | 1 to 5 | < 1 |  |  |  |

| Compound | IC50 ([1]; Homo sapiens, 144 h) [µM] | IC50 ([2]; Homo sapiens, 168 h) [µM] | IC50 [3] [µM] | IC50 [1] [µM] | IC50 [2] [µM] |
| --- | --- | --- | --- | --- | --- |
| [2H]C([2H])([2H])n1c(-c2cccc(F)c2)nc2c([C@@H](C)Nc3ccc(Cl)nc3C(=O)O)cc(F)cc2c1=O [Compound 89] | > 5 | 1 to 5 |  |  |  |
| COc1ccc(-c2nc3c([C@@H](C)Nc4ccc(Cl)nc4C(=O)O)cc(C)cc3c(=O)n2C)cc1 [Compound 111] | > 5 |  |  |  |  |
| C[C@@H](Nc1ccc(Cl)nc1C(=O)O)c1cc(Cl)cc2c(=O)n(C)c(-c3ncccn3)nc12 [Compound 98] | > 5 | < 1 |  |  |  |
| Cc1cc([C@@H](C)Nc2ccc(Cl)cc2C(=O)O)c2nc(-c3ccc(F)cn3)n(C)c(=O)c2c1 [Compound 90] | > 5 | < 1 |  |  |  |
| C[C@@H](Nc1c(C(=O)O)cnn1C)c1cc(Cl)cc2c(=O)n(C)c(-c3ccc(F)cn3)nc12 [Compound 86] | > 5 | > 5 |  |  |  |
| C[C@@H](Nc1ccc(Cl)nc1C(=O)O)c1cc(Cl)cc2c(=O)n(C)c(-c3ccc(F)cn3)nc12 [Compound 83] | > 5 | < 1 |  |  |  |
| COC(=O)c1nc(Cl)ccc1NC(C)c1cc(C)cc2c(=O)n(C)c(-c3ccc(OC)cc3)nc12 (stereo not shown) [Compound 106] | > 5 | < 1 |  |  |  |
| [2H]C([2H])([2H])n1c(-c2ccc(F)cn2)nc2c([C@@H](C)Nc3ccc(F)cc3C(=O)O)cc(F)cc2c1=O [Compound 91] | > 5 | < 1 |  |  |  |
| Cc1cc([C@@H](C)Nc2ccc(Cl)nc2C(=O)O)c2nc(-c3ccncc3)n(C)c(=O)c2c1 [Compound 109, (R)-6-chloro-3-((1-(3,6-dimethyl-4-oxo-2-(pyridin-4-yl)-3,4-dihydroquinazolin-8-yl)ethyl)amino)pyridinecarboxylic Acid] | > 5 | < 1 |  |  |  |
| [2H]C([2H])([2H])n1c(-c2cccc(F)c2)nc2c([C@@H](C)Nc3ccc(Cl)nc3C(=O)O)cc(C)cc2c1=O [Compound 93] | > 5 | < 1 |  |  |  |
| Cc1cc([C@@H](C)Nc2ccccc2C(=O)OC(C)(C)C)c2nc(-c3c(C)noc3C)n(C)c(=O)c2c1 [Compound 49] | > 5 | 1 to 5 |  |  |  |
| Cc1cc([C@@H](C)Nc2ccc(Cl)nc2C(N)=O)c2nc(-c3ccncc3)n(C)c(=O)c2c1 [Compound 110] | > 5 | < 1 |  |  |  |
| COC(=O)c1nc(Cl)ccc1N[C@@H](C)c1cc(C)cc2c(=O)nc(-c3ccc(C(F)(F)F)nc3)n(C)c12 [Compound 114] | > 5 |  |  |  |  |
| C[C@@H](Nc1cc(F)ccc1C(=O)O)c1cc(F)cc2c(=O)n(C)c(-c3ccc(F)cn3)nc12 [Compound 81] | > 5 | > 5 |  |  |  |
| COc1ccc(-c2nc3c(C(C)N)cc(C)cc3c(=O)n2C)cc1 (stereo not shown) [Compound 107] | > 5 | < 1 |  |  |  |
| Cc1cc([C@@H](C)Nc2ccccc2C(O)C(F)(F)F)c2oc(-c3ccc(F)cc3)cc(=O)c2c1 (single isomer, unassigned) [Compound 67] | > 5 | 1 to 5 |  |  |  |
| C[C@@H](Nc1ccccc1C(=O)O)c1cc(F)cc2c(=O)n(C)c(-c3ccc(F)cn3)nc12 [Compound 76] | > 5 | 1 to 5 |  |  |  |
| CCSc1nc2c([C@@H](C)Nc3ccc(Cl)nc3C(=O)OC)cc(F)cc2c(=O)n1C [Compound 105] | > 5 | 1 to 5 |  |  |  |
| Cc1cc(C(C)N2CCc3ccccc32)c2oc(-c3ccc(F)cc3F)cc(=O)c2c1 (stereo not shown) [Compound 116, 2-(2,4-difluorophenyl)-8-(1-(indolin-1-yl)ethyl)-6-methyl-4H-benzopyran-4-one] | > 5 | > 5 |  |  |  |
